Reference: patent publication US20250268894A1, “MACROCYCLE COMPOUNDS FOR THE TREATMENT OF CANCER” (Hoffmann-La Roche Inc., priority 2022, published 2025)

Experiments:
[1] = system: phosphorylation of ERK, KRAS G12D in AGS cells; experiment: pERK inhibition assay, KRAS G12D in AGS cells; assay type: cell-based, human; conditions: Homo sapiens, 4 hours
Method: (§1) This assay is to measure the ability of test compounds in inhibiting the phosphorylation of ERK, the downstream signaling of KRAS G12C in NCI-H358 cells, KRAS G12D in AGS cells, and KRAS G12V in SW620. NCI-H358 (ATCC-CRL5807) cells, AGS (ATCC-CRL-1739) cells, SW620 (ATCC-CCL-227) cells were all grown and maintained using RPMI-1640 medium (Thermo Fisher Scientific) with 10% fetal bovine serum and 1% penicillin/streptomycin. On the day prior to compound addition, cells were plated in tissue culture-treated 96 well plates (Corning-3699) at a density of 30,000 cell/well, 20,000 cell/well, 30,000 cell/well for NCI-H358, AGS and SW620 respectively, and allowed for attachment overnight. Diluted compounds were then added in a final concentration of 0.5% DMSO. After 4 hours of incubation, the medium was removed, 100 μL of 4% formaldehyde was added, and the assay plates were incubated at room temperature for 20 minutes. The plates were then washed once with phosphate buffered saline (PBS), and permeabilized with 100 μL of chilled methanol for 10 minutes. Non-specific antibody binding to the plates was blocked using 50 μL 1X BSA blocking buffer (Thermo-37520, 10-fold dilution by Phosphate-Buffered Saline Tween (PBST) for at least 1 hour at room temperature.
(§2) The amount of phosphor-ERK was determined using an antibody specific for phosphorylated form of ERK. Primary antibody (PERK, CST-4370, Cell Signaling Technology) was diluted 1:300 in blocking buffer, with 50 μL aliquoted to each well, and incubated overnight at 4° C. Cells was washed five times for 5 minutes with PBST. Secondary antibody (HRP-linked anti-rabbit IgG, CST-7074, Cell Signaling Technology) was diluted 1:1000 in blocking buffer, and 50 μL was added to each well and incubated 1-2 hrs at room temperature. Cells was washed […] for 5 minutes with PBST, 100 μL TMB ELISA substrate (abcam-ab171523) were added and gently shake for 20 minutes. 50 μL stop solution (abcam-ab171529) were added, and then read the signal (OD450) by EnVision.
(§3) IC50 was determined by fitting a 4-parameter sigmoidal concentration response model.

[2] = system: phosphorylation of ERK, KRAS G12C in NCI-H358 cells; experiment: pERK inhibition assay, KRAS G12C in NCI-H358 cells; assay type: cell-based, human; conditions: Homo sapiens, NCI-H358, 4 hours
Method: as §1, §2, §3

AGS cells (KRAS G12D) = experiment: Cell viability assay (Cell Counting Kit-8), KRAS G12D; assay type: cell-based; conditions: Homo sapiens, 72 hrs
Method: (§4) The purpose of this cellular assay was to determine the effects of test compounds on the proliferation of human cancer cell lines NCI-H358 (ATCC-CRL5807) cells, AGS (ATCC-CRL-1739) cells, SW620 (ATCC-CCL-227) over a 3-day treatment period by quantifying the amount of NADPH present at endpoint using Cell Counting Kit-8.
(§5) Cells were seeded at 5,000 cells/well (NCI-H358), 2,000 cells/well (AGS)2,000 cells/well (SW620) in 96-well assay plates (Corning-3699) and incubated overnight. On the day of the assay, diluted compounds were then added in a final concentration of 0.5% DMSO. After 72 hrs incubation, a tenth of the volume of cell counting kit 8 (Dnjindo-CK04) was added into each well. Read the signal (OD450 minus OD650) using EnVision after 2 hrs incubation. IC50 was determined by fitting a 4-parameter sigmoidal concentration response model.

KRAS G12C-BRAF complex = KRAS G12C-BRAF complex (Homo sapiens (Human), UniProt P01116+P62937, G12C); experiment: KRAS-BRAF with CYPA (500 nM) interaction assay (TR-FRET), G12C; assay type: biochemical
Sequence of KRAS G12C-BRAF complex (P01116-2 other isoform, or with tags, fused parts or gaps G12C): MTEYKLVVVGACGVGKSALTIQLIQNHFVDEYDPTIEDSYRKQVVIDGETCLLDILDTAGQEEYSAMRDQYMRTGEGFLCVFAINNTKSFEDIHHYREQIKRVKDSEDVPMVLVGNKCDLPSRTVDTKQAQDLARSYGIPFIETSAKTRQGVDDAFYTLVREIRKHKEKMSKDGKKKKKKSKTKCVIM
Sequence of KRAS G12C-BRAF complex (P62937 whole entry): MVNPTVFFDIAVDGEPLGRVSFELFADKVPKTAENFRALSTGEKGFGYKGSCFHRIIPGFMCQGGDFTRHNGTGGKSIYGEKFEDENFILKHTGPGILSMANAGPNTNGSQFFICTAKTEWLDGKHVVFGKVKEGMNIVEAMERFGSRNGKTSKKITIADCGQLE
Method: (§6) Kras-BRAF with CYPA (500 nM) Interaction Assay In this example, TR-FRET was also used to measure the compound or compound-CYPA dependent disruption of the KRAS G12C-BRAF complex. This protocol was also used to measure disruption of KRAS G12D or KRAS G12V binding to BRAF by a compound of the invention, respectively. […] Compound was present in plate wells as a 16-point 3-fold dilution series starting at a final concentration of 10 μM and incubated for 3 hours. […] TR-FRET signal was read on a […] microplate reader (Ex320 nm, Em 665/615 nm). Compounds that facilitate disruption of the KRAS-BRAF complex were identified as those eliciting a decrease in the TR-FRET ratio relative to DMSO control wells.

KRAS G12D-BRAF complex = KRAS G12D-BRAF complex (Homo sapiens (Human), UniProt P01116+P62937, G12D); experiment: KRAS-BRAF with CYPA (500 nM) interaction assay (TR-FRET), G12D; assay type: biochemical
Sequence of KRAS G12D-BRAF complex (P01116-2 other isoform, or with tags, fused parts or gaps G12D): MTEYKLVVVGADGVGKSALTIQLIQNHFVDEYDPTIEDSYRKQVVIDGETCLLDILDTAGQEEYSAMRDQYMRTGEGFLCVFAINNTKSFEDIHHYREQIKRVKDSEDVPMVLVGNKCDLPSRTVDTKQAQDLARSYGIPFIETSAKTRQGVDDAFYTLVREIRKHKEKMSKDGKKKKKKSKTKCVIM
Sequence of KRAS G12D-BRAF complex (P62937 whole entry): as the sequence (P62937 whole entry) above
Method: as §6

KRAS G12V-BRAF complex = KRAS G12V-BRAF complex (Homo sapiens (Human), UniProt P01116+P62937, G12V); experiment: KRAS-BRAF with CYPA (500 nM) interaction assay (TR-FRET), G12V; assay type: biochemical
Sequence of KRAS G12V-BRAF complex (P01116-2 other isoform, or with tags, fused parts or gaps G12V): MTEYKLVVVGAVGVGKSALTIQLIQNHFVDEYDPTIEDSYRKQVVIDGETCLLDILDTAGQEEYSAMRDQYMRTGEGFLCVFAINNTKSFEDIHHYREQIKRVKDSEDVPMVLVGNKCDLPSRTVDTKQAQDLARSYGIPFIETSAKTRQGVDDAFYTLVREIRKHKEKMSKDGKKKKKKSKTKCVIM
Sequence of KRAS G12V-BRAF complex (P62937 whole entry): as the sequence (P62937 whole entry) above
Method: as §6

[3] = system: NCI-H358 cells (KRAS G12C); experiment: Cell viability assay (Cell Counting Kit-8), KRAS G12C; assay type: cell-based; conditions: Homo sapiens, NCI-H358, 72 hrs
Method: as §4, §5

SW620 cells (KRAS G12V) = experiment: Cell viability assay (Cell Counting Kit-8), KRAS G12V; assay type: cell-based; conditions: Homo sapiens, SW-620, SW620, 72 hrs
Method: as §4, §5

[4] = system: phosphorylation of ERK, KRAS G12V in SW620 cells; experiment: pERK inhibition assay, KRAS G12V in SW620; assay type: cell-based, human; conditions: Homo sapiens, SW-620, SW620, 4 hours
Method: as §1, §2, §3

| SMILES | IC50 [1] [nM] | IC50 [2] [nM] | IC50 (AGS cells (KRAS G12D)) [nM] | IC50 (KRAS G12C-BRAF complex) [nM] | IC50 (KRAS G12D-BRAF complex) [nM] | IC50 (KRAS G12V-BRAF complex) [nM] | IC50 [3] [nM] | IC50 (SW620 cells (KRAS G12V)) [nM] | IC50 [4] [nM] |
| --- | --- | --- | --- | --- | --- | --- | --- | --- | --- |
| CO[C@@H](C)c1ncc(N2CCN(C)CC2)cc1-c1c2c3cc(c(F)cc3n1CC(F)(F)F)-c1csc(n1)C[C@H](NC(=O)[C@H](C(C)C)N(C)C(=O)N1CC(N(C)C)C1)C(=O)N1CCC[C@H](N1)C(=O)OCC(C)(C)C2 (atropisomer, axis not shown; (M)) [Example 1, 3-(dimethylamino)-N-[(1S)-1-[[(7S,13S)-24-fluoro-(20M)-20-[2-[(1S)-1-methoxyethyl]-5-(4-methylpiperazin-1-yl)-3-pyridyl]-17,17-dimethyl-8,14-dioxo-21-(2,2,2-trifluoroethyl)-15-oxa-4-thia-9,21,27,28-tetrazapentacyclo[17.5.2.1^2,5.1^9,13.0^22,26]octacosa-1(25),2,5 (28),19,22 (26),23-hexaen-7-yl]carbamoyl]-2-methyl-propyl]-N-methyl-azetidine-1-carboxamide] | 2 | 1 | 13 | 46 | 147 | 70 | 2 | 1 | 1 |
| CCn1c(-c2cc(N3CCN(CC(F)(F)F)CC3)cnc2[C@H](C)OC)c2c3cc(c(F)cc31)-c1csc(n1)C[C@H](NC(=O)[C@H](C(C)C)N(C)C(=O)N1CCOCC1)C(=O)N1CCC[C@H](N1)C(=O)OCC(C)(C)C2 (atropisomer, axis not shown; (M)) [Example 9, N-[(1S)-1-[[(7S,13S)-21-ethyl-24-fluoro-(20M)-20-[2-[(1S)-1-methoxyethyl]-5-[4-(2,2,2-trifluoroethyl)piperazin-1-yl]-3-pyridyl]-17,17-dimethyl-8,14-dioxo-15-oxa-4-thia-9,21,27,28-tetrazapentacyclo[17.5.2.1^2,5.1^9,13.0^22,26]octacosa-1 (25),2,5 (28),19,22 (26),23-hexaen-7-yl]carbamoyl]-2-methyl-propyl]-N-methyl-morpholine-4-carboxamide] | 23 | 24 | 91 | 49 | 225 | 124 | 24 | 14 | 9 |
| CCn1c(-c2cc(N3CCN(C)CC3)cnc2[C@H](C)OC)c2c3cc(c(F)cc31)-c1csc(n1)C[C@H](NC(=O)[C@H](C(C)C)N(C)C(=O)N1CCOCC1)C(=O)N1CCC[C@H](N1)C(=O)OCC(C)(C)C2 (atropisomer, axis not shown; (M)) [Example 10, N-[(1S)-1-[[(7S,13S)-21-ethyl-24-fluoro-(20M)-20-[2-[(1S)-1-methoxyethyl]-5-(4-methylpiperazin-1-yl)-3-pyridyl]-17,17-dimethyl-8,14-dioxo-15-oxa-4-thia-9,21,27,28-tetrazapentacyclo[17.5.2.1^2,5.1^9,13.0^22,26]octacosa-1 (25),2,5 (28),19,22 (26),23-hexaen-7-yl]carbamoyl]-2-methyl-propyl]-N-methyl-morpholine-4-carboxamide] | 8 | 14 | 40 | 61 | 186 | 149 | 6 | 6 | 6 |
| CO[C@@H](C)c1ncc(N2CCN(CC(F)(F)F)CC2)cc1-c1c2c3c(F)c(ccc3n1CC(F)(F)F)-c1csc(n1)C[C@H](NC(=O)[C@H](C(C)C)N(C)C(=O)N1CCOCC1)C(=O)N1CCC[C@H](N1)C(=O)OCC(C)(C)C2 (atropisomer, axis not shown; (M)) [Example 17, N-[(1S)-1-[[(7S,13S)-25-fluoro-(20M)-20-[2-[(1S)-1-methoxyethyl]-5-[4-(2,2,2-trifluoroethyl)piperazin-1-yl]-3-pyridyl]-17,17-dimethyl-8,14-dioxo-21-(2,2,2-trifluoroethyl)-15-oxa-4-thia-9,21,27,28-tetrazapentacyclo[17.5.2.1^2,5.1^9,13.0^22,26]octacosa-1 (25),2,5 (28),19,22 (26),23-hexaen-7-yl]carbamoyl]-2-methyl-propyl]-N-methyl-morpholine-4-carboxamide] | 4 | 8 | 46 | 2 | 7 | 4 | 4 | 6 | 4 |
| CO[C@@H](C)c1ncc(N2CCOCC2)cc1-c1c2c3cc(c(F)cc3n1CC(F)(F)F)-c1csc(n1)C[C@H](NC(=O)[C@H](C(C)C)N(C)C(=O)N1CCOCC1)C(=O)N1CCC[C@H](N1)C(=O)OCC(C)(C)C2 (atropisomer, axis not shown; (M)) [Example 11, N-[(1S)-1-[[(7S,13S)-24-fluoro-20-(20M)-[2-[(1S)-1-methoxyethyl]-5-morpholino-3-pyridyl]-17,17-dimethyl-8,14-dioxo-21-(2,2,2-trifluoroethyl)-15-oxa-4-thia-9,21,27,28-tetrazapentacyclo[17.5.2.1^2,5.1^9,13.0^22,26]octacosa-1(25),2,5(28),19,22(26),23-hexaen-7-yl]carbamoyl]-2-methyl-propyl]-N-methyl-morpholine-4-carboxamide] | 1 | 3 | 6 | 24 | 112 | 59 | 2 | 1 | 1 |
| CCn1c(-c2cc(N3CCOCC3)cnc2[C@H](C)OC)c2c3cc(c(F)cc31)-c1csc(n1)C[C@H](NC(=O)[C@H](C(C)C)N(C)C(=O)NCC(F)(F)F)C(=O)N1CCC[C@H](N1)C(=O)OCC(C)(C)C2 (atropisomer, axis not shown; (M)) [Example 13, (2S)-N-[(7S,13S)-21-ethyl-24-fluoro-(20M)-20-[2-[(1S)-1-methoxyethyl]-5-morpholino-3-pyridyl]-17,17-dimethyl-8,14-dioxo-15-oxa-4-thia-9,21,27,28-tetrazapentacyclo[17.5.2.1^2,5.1^9,13.0^22,26]octacosa-1 (25),2,5 (28),19,22 (26),23-hexaen-7-yl]-3-methyl-2-[methyl(2,2,2-trifluoroethylcarbamoyl)amino]butanamide] | 46 | 19 | 447 | > 10000 | > 10000 | > 10000 | 26 | 29 | 8 |
